Experiment in all cases: KINOMEscan
Holding throughout (type): binding
Holding throughout (details): read-out: % control activity remaining

The target in one test is T1, CDK8 (Homo sapiens, UniProt P49336).
T1 construct: purchased Eurofins DiscoverX KINOMEscan

The target in another test is T2, VEGFR2 (Homo sapiens, UniProt P35968).
T2 construct: purchased Eurofins DiscoverX KINOMEscan

For the next test, the target named is T3, CSNK1G3 (Homo sapiens, UniProt Q9Y6M4).
T3 construct: purchased Eurofins DiscoverX KINOMEscan

Another test concerns the target T4, MARK1 (Homo sapiens, UniProt Q9P0L2).
T4 construct: purchased Eurofins DiscoverX KINOMEscan

A further test addresses T5, PAK1 (Homo sapiens, UniProt Q13153).
T5 construct: purchased Eurofins DiscoverX KINOMEscan

In a further test the target is T6, PCTK3 (Homo sapiens, UniProt Q07002).
T6 construct: purchased Eurofins DiscoverX KINOMEscan

The next test has as its target T7, PIP5K2C (Homo sapiens, UniProt Q8TBX8).
T7 construct: purchased Eurofins DiscoverX KINOMEscan
T7 sequence (Q8TBX8 1-421): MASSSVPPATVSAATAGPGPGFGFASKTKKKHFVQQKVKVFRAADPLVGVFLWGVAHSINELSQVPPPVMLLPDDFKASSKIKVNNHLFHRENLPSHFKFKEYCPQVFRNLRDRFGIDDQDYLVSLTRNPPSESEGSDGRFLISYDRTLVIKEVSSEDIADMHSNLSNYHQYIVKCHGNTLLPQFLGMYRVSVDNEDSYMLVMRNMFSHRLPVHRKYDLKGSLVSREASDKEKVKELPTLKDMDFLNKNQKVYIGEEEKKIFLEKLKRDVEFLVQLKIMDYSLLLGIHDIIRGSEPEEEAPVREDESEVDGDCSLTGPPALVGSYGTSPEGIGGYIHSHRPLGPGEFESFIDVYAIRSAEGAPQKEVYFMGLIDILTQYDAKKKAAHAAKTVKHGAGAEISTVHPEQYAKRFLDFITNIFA

A further test has as its target T8, MRCKB (Homo sapiens, UniProt Q9Y5S2).
T8 construct: purchased Eurofins DiscoverX KINOMEscan

The next test concerns the target T9, TNNI3K (Homo sapiens, UniProt Q59H18).
T9 construct: purchased Eurofins DiscoverX KINOMEscan
T9 sequence (Q59H18 1-835): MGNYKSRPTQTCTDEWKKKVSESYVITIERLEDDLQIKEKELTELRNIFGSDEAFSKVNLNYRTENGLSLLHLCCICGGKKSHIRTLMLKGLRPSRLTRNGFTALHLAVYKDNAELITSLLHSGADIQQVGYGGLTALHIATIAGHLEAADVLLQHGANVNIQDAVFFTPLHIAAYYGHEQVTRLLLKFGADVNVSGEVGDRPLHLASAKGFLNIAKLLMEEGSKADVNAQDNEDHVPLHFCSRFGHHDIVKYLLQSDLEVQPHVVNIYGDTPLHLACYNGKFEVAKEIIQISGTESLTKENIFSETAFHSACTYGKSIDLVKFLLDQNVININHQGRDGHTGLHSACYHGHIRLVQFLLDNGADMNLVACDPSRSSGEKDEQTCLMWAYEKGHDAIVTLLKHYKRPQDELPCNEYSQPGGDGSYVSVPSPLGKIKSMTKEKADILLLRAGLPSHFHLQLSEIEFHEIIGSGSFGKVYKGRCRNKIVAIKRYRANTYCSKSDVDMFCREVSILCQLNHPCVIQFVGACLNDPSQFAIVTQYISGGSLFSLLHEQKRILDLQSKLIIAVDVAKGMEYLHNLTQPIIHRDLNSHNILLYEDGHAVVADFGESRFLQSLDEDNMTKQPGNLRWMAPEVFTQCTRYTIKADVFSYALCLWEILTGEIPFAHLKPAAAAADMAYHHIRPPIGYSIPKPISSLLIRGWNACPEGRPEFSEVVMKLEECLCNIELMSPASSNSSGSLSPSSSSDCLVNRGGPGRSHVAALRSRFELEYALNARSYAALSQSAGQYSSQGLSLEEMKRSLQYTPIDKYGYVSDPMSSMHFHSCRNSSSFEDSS

A further test concerns the target T10, MAP3K3 (Homo sapiens, UniProt Q99759).
T10 construct: purchased Eurofins DiscoverX KINOMEscan
T10 sequence (Q99759 1-626): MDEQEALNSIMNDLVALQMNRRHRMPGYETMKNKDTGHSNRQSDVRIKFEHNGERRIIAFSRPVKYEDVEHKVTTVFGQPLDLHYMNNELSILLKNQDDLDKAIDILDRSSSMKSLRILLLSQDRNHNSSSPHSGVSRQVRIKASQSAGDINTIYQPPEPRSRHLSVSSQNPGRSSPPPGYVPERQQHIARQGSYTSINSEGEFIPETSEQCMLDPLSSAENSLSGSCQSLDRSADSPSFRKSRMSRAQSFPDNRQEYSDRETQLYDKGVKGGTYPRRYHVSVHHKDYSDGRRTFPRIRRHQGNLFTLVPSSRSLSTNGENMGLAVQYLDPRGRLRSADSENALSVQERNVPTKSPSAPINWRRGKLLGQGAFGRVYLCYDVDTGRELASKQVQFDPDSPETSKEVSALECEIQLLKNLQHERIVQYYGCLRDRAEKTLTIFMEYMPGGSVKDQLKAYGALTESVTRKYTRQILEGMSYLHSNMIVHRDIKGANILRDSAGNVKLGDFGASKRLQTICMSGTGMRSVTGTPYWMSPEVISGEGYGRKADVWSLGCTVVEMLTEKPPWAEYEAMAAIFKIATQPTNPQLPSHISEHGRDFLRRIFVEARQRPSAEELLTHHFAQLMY

Each structure is given as a SMILES string.

T3 sequence (Q9Y6M4 whole entry): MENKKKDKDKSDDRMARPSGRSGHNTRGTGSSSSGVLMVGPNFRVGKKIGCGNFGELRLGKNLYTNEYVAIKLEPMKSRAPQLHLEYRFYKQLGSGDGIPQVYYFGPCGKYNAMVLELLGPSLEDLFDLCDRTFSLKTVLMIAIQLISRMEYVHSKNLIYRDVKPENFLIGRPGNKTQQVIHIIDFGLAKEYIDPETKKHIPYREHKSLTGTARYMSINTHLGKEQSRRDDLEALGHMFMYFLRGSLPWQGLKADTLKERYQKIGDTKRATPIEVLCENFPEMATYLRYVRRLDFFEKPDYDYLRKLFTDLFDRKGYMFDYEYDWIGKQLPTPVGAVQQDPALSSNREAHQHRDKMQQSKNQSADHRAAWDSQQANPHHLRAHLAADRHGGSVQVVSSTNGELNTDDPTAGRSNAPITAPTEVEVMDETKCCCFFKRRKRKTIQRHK
T8 sequence (Q9Y5S2 whole entry): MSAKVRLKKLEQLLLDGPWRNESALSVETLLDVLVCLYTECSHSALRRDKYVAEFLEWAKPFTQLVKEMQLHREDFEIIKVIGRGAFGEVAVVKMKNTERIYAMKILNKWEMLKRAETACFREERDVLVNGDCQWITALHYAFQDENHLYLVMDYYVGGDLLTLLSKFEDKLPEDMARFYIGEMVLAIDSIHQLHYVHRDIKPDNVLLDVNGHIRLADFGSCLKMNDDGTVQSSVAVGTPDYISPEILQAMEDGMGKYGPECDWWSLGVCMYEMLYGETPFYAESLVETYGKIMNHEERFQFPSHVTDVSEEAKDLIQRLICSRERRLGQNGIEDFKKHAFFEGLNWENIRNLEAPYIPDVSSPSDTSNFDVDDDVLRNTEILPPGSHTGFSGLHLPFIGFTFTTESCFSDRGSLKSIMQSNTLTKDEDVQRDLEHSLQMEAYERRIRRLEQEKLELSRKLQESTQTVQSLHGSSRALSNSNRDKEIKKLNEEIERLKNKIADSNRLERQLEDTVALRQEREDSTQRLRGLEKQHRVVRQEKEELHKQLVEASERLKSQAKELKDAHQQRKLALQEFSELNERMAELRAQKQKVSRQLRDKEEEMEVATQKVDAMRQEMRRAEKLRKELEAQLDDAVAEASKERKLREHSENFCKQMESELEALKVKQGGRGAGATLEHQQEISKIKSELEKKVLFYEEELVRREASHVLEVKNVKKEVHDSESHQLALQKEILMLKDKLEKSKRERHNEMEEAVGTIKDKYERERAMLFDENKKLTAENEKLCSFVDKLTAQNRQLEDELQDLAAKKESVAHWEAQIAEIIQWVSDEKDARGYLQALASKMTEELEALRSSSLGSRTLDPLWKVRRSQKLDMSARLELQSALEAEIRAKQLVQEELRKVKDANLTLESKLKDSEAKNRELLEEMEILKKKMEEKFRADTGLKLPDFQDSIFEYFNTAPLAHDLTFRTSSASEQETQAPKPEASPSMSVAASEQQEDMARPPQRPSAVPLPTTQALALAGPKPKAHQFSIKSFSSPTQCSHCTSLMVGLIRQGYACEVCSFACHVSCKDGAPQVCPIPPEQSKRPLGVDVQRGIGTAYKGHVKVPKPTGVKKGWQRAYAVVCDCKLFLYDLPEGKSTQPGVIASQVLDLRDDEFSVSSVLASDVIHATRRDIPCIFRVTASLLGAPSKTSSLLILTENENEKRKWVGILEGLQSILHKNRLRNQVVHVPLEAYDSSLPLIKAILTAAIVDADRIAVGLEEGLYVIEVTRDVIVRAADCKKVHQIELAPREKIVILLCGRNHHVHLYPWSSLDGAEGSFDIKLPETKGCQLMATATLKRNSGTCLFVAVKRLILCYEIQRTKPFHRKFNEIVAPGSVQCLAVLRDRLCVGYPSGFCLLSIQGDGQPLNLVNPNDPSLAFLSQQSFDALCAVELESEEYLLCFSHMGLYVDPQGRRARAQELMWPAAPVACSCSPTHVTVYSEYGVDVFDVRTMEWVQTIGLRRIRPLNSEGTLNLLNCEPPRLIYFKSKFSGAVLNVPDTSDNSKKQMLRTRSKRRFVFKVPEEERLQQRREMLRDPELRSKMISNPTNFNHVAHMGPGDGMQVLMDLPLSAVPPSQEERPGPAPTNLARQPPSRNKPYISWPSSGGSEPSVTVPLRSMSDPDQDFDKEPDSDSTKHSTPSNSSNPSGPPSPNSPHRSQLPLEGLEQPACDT
T6 sequence (Q07002 whole entry): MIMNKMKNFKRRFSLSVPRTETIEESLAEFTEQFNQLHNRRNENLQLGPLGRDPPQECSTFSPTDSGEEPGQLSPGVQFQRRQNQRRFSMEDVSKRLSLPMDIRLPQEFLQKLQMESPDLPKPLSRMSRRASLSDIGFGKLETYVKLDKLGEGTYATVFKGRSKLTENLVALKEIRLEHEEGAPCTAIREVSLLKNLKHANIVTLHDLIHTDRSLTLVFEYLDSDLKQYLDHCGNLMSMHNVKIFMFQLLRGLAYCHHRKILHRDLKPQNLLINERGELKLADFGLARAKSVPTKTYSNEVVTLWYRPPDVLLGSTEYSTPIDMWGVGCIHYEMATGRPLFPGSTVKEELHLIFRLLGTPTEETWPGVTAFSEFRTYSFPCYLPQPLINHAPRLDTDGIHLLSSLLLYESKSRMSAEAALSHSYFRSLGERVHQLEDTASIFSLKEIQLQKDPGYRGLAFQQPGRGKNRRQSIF
T5 sequence (Q13153 whole entry): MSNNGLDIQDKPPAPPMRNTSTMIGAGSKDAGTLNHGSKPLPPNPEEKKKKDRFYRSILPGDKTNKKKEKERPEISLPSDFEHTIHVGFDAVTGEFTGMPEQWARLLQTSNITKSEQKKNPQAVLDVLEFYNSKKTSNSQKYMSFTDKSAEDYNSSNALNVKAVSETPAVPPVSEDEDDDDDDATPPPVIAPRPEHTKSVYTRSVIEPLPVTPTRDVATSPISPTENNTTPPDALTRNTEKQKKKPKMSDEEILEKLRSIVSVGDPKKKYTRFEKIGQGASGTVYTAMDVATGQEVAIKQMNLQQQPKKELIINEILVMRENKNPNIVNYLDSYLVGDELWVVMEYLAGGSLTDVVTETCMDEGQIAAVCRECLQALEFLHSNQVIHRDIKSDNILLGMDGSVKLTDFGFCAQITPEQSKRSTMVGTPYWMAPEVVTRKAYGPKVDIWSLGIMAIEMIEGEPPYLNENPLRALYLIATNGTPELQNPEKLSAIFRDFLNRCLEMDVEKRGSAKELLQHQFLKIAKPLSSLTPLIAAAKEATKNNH
T2 sequence (P35968 20-1356): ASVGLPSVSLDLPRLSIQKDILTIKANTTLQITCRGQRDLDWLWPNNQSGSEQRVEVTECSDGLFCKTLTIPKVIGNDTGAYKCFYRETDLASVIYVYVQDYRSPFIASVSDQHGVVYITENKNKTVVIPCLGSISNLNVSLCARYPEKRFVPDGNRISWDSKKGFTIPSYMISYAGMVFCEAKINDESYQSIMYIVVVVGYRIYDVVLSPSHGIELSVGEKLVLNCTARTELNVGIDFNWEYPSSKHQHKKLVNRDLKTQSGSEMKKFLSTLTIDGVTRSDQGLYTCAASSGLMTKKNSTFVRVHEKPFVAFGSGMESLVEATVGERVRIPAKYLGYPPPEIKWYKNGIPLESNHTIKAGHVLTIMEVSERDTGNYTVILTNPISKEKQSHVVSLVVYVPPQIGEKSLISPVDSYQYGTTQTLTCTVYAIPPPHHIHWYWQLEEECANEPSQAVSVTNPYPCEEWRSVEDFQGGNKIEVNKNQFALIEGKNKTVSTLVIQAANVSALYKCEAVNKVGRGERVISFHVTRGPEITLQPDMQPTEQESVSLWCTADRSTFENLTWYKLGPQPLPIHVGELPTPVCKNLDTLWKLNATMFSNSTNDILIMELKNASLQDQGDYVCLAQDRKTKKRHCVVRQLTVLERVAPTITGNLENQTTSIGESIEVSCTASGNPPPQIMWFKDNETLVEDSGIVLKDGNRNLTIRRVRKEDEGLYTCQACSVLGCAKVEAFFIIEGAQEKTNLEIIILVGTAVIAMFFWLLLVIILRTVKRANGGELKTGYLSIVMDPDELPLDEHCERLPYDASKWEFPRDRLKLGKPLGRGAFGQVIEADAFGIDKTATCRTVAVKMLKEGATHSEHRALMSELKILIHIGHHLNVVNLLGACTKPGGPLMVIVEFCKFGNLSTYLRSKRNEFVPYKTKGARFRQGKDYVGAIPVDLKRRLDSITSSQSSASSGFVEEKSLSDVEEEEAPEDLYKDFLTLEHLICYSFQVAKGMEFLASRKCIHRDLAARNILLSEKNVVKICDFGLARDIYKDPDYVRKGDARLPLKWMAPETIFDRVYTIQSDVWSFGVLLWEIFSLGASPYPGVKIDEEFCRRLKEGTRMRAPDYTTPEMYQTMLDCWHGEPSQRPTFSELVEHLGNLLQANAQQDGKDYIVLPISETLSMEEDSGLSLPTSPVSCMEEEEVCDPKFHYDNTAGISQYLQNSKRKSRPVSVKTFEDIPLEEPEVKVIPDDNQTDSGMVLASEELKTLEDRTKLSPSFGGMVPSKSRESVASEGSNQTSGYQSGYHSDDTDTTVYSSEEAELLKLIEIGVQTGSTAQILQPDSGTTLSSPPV
T1 sequence (P49336 whole entry): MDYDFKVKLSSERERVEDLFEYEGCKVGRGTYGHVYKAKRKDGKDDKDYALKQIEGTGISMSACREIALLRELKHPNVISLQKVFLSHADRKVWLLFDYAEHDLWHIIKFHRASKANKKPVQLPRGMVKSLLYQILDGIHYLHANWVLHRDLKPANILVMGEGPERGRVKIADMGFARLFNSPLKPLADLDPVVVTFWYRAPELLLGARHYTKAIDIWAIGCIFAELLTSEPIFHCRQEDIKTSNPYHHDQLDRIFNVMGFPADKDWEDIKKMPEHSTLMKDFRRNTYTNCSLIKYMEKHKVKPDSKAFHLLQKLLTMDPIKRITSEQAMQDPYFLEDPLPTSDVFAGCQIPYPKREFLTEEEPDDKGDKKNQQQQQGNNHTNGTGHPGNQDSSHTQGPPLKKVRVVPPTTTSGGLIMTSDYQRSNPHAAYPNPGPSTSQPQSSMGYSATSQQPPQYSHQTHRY

Take `Clc1cc(NCC2CC2)c2ncc(-c3ccc4[nH]ncc4c3)n2n1` [compound 2, 6-Chloro-N-(cyclopropylmethyl)-3-(1H-indazol-5-yl)imidazo[1,2-b]pyridazin-8-amine]: the remaining binding at 1 µM on CDK8 was 82%; on VEGFR2 it was 79%; on CSNK1G3 it was 100%; on MARK1 it was 86%; at PAK1 it was 98%; on PCTK3, 79%. Also, the remaining binding at 1 µM on PIP5K2C is 67%; on MRCKB, 64%; at TNNI3K, 97%; at MAP3K3, 88%.

On to `O=C(CN1CCOCC1)N[C@H]1CC[C@H](Nc2cc(Cl)nn3c(-c4ccc5[nH]ncc5c4)cnc23)CC1` [compound 26], for which the remaining binding at 1 µM on CDK8 was 97%; at VEGFR2, 35%; at CSNK1G3 it was 100%; on MARK1 it was 94%; at PAK1, 99%; at PCTK3 it was 80%. Moreover, the remaining binding at 1 µM on PIP5K2C was found to be 93%; on MRCKB, 97%; at TNNI3K, 100%; on MAP3K3, 89%.

`CN1CCC(CNc2cc(Cl)nn3c(-c4cc5nc(Nc6ccccc6)[nH]c5cc4F)cnc23)CC1` [compound 31, 6-Chloro-3-(6-fluoro-2-(phenylamino)-1H-benzo[d]imidazol-5-yl)-N-((1-methylpiperidin-4-yl)methyl)imidazo[1,2-b]pyridazin-8-amine]: the remaining binding at 1 µM at CDK8 stood at 70%; at VEGFR2 it was 71%; at CSNK1G3 it was 100%; at MARK1, 94%; at PAK1, 89%; at PCTK3, 88%. Also, the remaining binding at 1 µM at PIP5K2C is 100%; at MRCKB, 100%; on TNNI3K it was 100%; on MAP3K3, 73%.

The values are drawn from paper PMC6437697 (Journal of Medicinal Chemistry, 2019).
